Data as given in patent US11634396B2 (priority 2021, dated 2023).

target: human mOR (Homo sapiens (Human), UniProt P35372); assay: cell-based; details: not given
Method: CHO Tag-lite human mOR stable cell line from Cisbio (NCBI accession number: NM_000914.3, Bedford, Mass.) were seeded and grown to approximately 80% confluence in Ham F-12 with 10% FBS, 50 U/ml penicillin, 50 μg/ml streptomycin, 2 mM Hepes, and 1 mg/ml geneticin (Invitrogen, Carlsbad, Calif.). Cells were then harvested using accutase (Corning. Coming, N.Y.), centrifuged at 1300 RPM for 5 min, and plated at 5000 cells per 5 μL per well in a 5× dilution of stimulation buffer consisting of the HTRF cAMP Gi kit, water and IBMX at 0.5 mM (Cisbio, Bedford, Mass.) in white HTRF low volume 384 well plates (Cisbio, Bedford, Mass.). Plates were then incubated at 37° C. in 5% CO2 for 10 minutes. For the agonist assay, forskolin was added to a final concentration of 4 μM. […] Test compounds were dissolved in DMSO and water, and then serially diluted to working concentrations such that the concentration of DMSO was less than 0.1%. Diluted test compounds were added at 2.5 μL per well, and plates were incubated at 37° C., and 5% CO2 for 15 minutes, and then at room temperature for 15 minutes. Next 5 μl/well of cAMP Eu-cryptate and 5 μl/well of anti-cAMP-d2 (both diluted 1:20 in lysis buffer) were added, and plates were incubated at room temperature for 1 hour. Following incubation, plates were read in a Synergy Neo2 multi-mode reader (Biotek, Winooski, Vt.). […] For the agonist assay, data was normalized using the maximal DAMGO response. Measurements were performed in triplicate and the dose response was fit using nonlinear regression.

human mOR, sequence (P35372 whole entry): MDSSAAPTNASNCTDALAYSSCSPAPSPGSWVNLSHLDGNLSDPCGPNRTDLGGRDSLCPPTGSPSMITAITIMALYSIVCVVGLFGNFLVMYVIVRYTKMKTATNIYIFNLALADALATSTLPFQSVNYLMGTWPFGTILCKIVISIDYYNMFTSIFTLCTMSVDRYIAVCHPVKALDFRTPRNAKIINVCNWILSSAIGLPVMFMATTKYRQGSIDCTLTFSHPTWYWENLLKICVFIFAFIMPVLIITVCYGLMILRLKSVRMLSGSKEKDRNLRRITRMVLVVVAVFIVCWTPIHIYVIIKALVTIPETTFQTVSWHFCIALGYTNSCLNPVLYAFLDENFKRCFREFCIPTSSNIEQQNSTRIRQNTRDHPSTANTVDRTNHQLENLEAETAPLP

| Structure (SMILES) | IC50 |
| --- | --- |
| CNC(=O)c1ccc(C[C@@H](CNC(=O)C[C@H](c2ccc(Cl)cc2)C2(C(F)(F)F)CC2)N(C)C)cc1F [Compound 107, 4-((S)-3-((R)-3-(4-chlorophenyl)-3-(1-(trifluoromethyl)cyclopropyl)propanamido)-2-(dimethylamino)propyl)-2-fluoro-N-methylbenzamide] | < 300 nM |
| CNC(=O)c1ccc(C[C@@H](CNC(=O)CC(c2ncc(Cl)cn2)C2(C(F)(F)F)CC2)N(C)C)c(Cl)c1F (stereo partly drawn) [Compound 112, 3-chloro-4-((2S)-3-(3-(5-chloropyrimidin-2-yl)-3-(1-(trifluoromethyl)cyclopropyl)propanamido)-2-(dimethylamino)propyl)-2-fluoro-N-methylbenzamide] | > 3000 nM |
| CNC(=O)c1ccc(C[C@@H](CNC(=O)C[C@H](c2ccc(C)nc2)C2(C(F)(F)F)CC2)N(C)C)c(Cl)c1 [Compound 113, 3-chloro-4-((S)-2-(dimethylamino)-3-((R)-3-(6-methylpyridin-3-yl)-3-(1-(trifluoromethyl)cyclopropyl)propanamido)propyl)-N-methylbenzamide] | < 300 nM |
| CNC(=O)c1ccc(C[C@@H](CNC(=O)C[C@H](c2cncc(Cl)c2)C2(C(F)(F)F)CC2)N(C)C)c(Cl)c1 [Compound 114, 3-chloro-4-((S)-3-((R)-3-(5-chloropyridin-3-yl)-3-(1-(trifluoromethyl)cyclopropyl)propanamido)-2-(dimethylamino)propyl)-N-methylbenzamide] | < 300 nM |
| CNC(=O)c1ccc(C[C@@H](CNC(=O)CC(c2cncc(F)c2)C2(C(F)(F)F)CC2)N(C)C)c(Cl)c1 (some centres unmarked) [Compound 116] | < 300 nM |
| CNC(=O)c1ccc(C[C@@H](CNC(=O)CC(c2cncc(OC)c2)C2(C(F)(F)F)CC2)N(C)C)c(Cl)c1 (stereo partly drawn) [Compound 117, 3-chloro-4-((2S)-2-(dimethylamino)-3-(3-(5-methoxypyridin-3-yl)-3-(1-(trifluoromethyl)cyclopropyl)propanamido)propyl)-N-methylbenzamide] | > 3000 nM |
| CNC(=O)c1ccc(C[C@@H](CNC(=O)CC(c2cc(C)ccn2)C2(C(F)(F)F)CC2)N(C)C)c(Cl)c1 (stereo partly drawn) [Compound 118, 3-chloro-4-((2S)-2-(dimethylamino)-3-(3-(4-methylpyridin-2-yl)-3-(1-(trifluoromethyl)cyclopropyl)propanamido)propyl)-N-methylbenzamide] | > 3000 nM |
| CNC(=O)c1ccc(C[C@@H](CNC(=O)CC(c2cccnc2)C2(C(F)(F)F)CC2)N(C)C)c(Cl)c1 (stereo partly drawn) [Compound 119, 3-chloro-4-((2S)-2-(dimethylamino)-3-(3-(pyridin-3-yl)-3-(1-(trifluoromethyl)cyclopropyl)propanamido)propyl)-N-methylbenzamide] | < 300 nM |
| CNC(=O)c1ccc(C[C@@H](CNC(=O)CC(c2ncccc2F)C2(C(F)(F)F)CC2)N(C)C)c(Cl)c1 (stereo partly drawn) [Compound 120, 3-chloro-4-((2S)-2-(dimethylamino)-3-(3-(3-fluoropyridin-2-yl)-3-(1-(trifluoromethyl)cyclopropyl)propanamido)propyl)-N-methylbenzamide] | < 300 nM |
| CNC(=O)c1ccc(C[C@@H](CNC(=O)CC(c2ccc(F)cn2)C2(C(F)(F)F)CC2)N(C)C)c(Cl)c1 (stereo partly drawn) [Compound 121, 3-chloro-4-((2S)-2-(dimethylamino)-3-(3-(5-fluoropyridin-2-yl)-3-(1-(trifluoromethyl)cyclopropyl)propanamido)propyl)-N-methylbenzamide] | < 300 nM |
| CNC(=O)c1ccc(C[C@@H](CNC(=O)CC(c2ccc(Cl)cn2)C2(C(F)(F)F)CC2)N(C)C)c(Cl)c1 (stereo partly drawn) [Compound 122, 3-chloro-4-((2S)-3-(3-(5-chloropyridin-2-yl)-3-(1-(trifluoromethyl)cyclopropyl)propanamido)-2-(dimethylamino)propyl)-N-methylbenzamide] | < 300 nM |
| CNC(=O)c1ccc(C[C@@H](CNC(=O)C[C@H](c2cnc(C)s2)C2(C(F)(F)F)CC2)N(C)C)c(F)c1 [Compound 123, 4-((S)-2-(dimethylamino)-3-((S)-3-(2-methylthiazol-5-yl)-3-(1-(trifluoromethyl)cyclopropyl)propanamido)propyl)-3-fluoro-N-methylbenzamide] | < 300 nM |
| CNC(=O)c1ccc(C[C@@H](CNC(=O)C[C@H](c2ccc(C)nc2)C2(C(F)(F)F)CC2)N(C)C)c(C)c1F [Compound 125, 4-((S)-2-(dimethylamino)-3-((R)-3-(6-methylpyridin-3-yl)-3-(1-(trifluoromethyl)cyclopropyl)propanamido)propyl)-2-fluoro-N,3-dimethylbenzamide] | < 300 nM |
| CNC(=O)c1ccc(C[C@@H](CNC(=O)C[C@@H](CC(C)C)c2cccnc2)N(C)C)c(C)c1 [Compound 126, 4-((S)-2-(dimethylamino)-3-((R)-5-methyl-3-(pyridin-3-yl)hexanamido)propyl)-N,3-dimethylbenzamide] | > 3000 nM |
| CNC(=O)c1ccc(C[C@@H](CNC(=O)C[C@H](c2ccncc2F)C2(C(F)(F)F)CC2)N(C)C)c(C)c1 [Compound 127, 4-((S)-2-(dimethylamino)-3-((R)-3-(3-fluoropyridin-4-yl)-3-(1-(trifluoromethyl)cyclopropyl)propanamido)propyl)-N,3-dimethylbenzamide] | < 300 nM |
| CNC(=O)c1ccc(C[C@@H](CNC(=O)C[C@H](c2ccc(F)cc2)C2(C(F)(F)F)CC2)N(C)C)c(C)c1 [Compound 128, 4-((S)-2-(dimethylamino)-3-((R)-3-(4-fluorophenyl)-3-(1-(trifluoromethyl)cyclopropyl)propanamido)propyl)-N,3-dimethylbenzamide] | < 300 nM |
| CNC(=O)c1ccc(C[C@@H](CNC(=O)C[C@H](c2cccnc2)C(C)(C)C)N(C)C)c(C)c1 [Compound 129, 4-((S)-3-((S)-4,4-dimethyl-3-(pyridin-3-yl)pentanamido)-2-(dimethylamino)propyl)-N,3-dimethylbenzamide] | < 300 nM |
| CNC(=O)c1ccc(C[C@@H](CNC(=O)C[C@H](c2cccnc2)C2(C(F)(F)F)CC2)N(C)C)c(C)c1 [Compound 131, 4-((S)-2-(dimethylamino)-3-((R)-3-(pyridin-3-yl)-3-(1-(trifluoromethyl)cyclopropyl)propanamido)propyl)-N,3-dimethylbenzamide] | < 300 nM |
| CNC(=O)c1ccc(C[C@@H](CNC(=O)C[C@H](c2ccc(C)nc2)C2(C(F)(F)F)CC2)N(C)C)c(C)c1 [Compound 132, 4-((S)-2-(dimethylamino)-3-((R)-3-(6-methylpyridin-3-yl)-3-(1-(trifluoromethyl)cyclopropyl)propanamido)propyl)-N,3-dimethylbenzamide] | < 300 nM |
| CNC(=O)c1ccc(C[C@@H](CNC(=O)C[C@@H](CC2CC2)c2cccnc2)N(C)C)c(C)c1 [Compound 133, 4-((S)-3-((R)-4-cyclopropyl-3-(pyridin-3-yl)butanamido)-2-(dimethylamino)propyl)-N,3-dimethylbenzamide] | > 3000 nM |
| CNC(=O)c1ccc(C[C@@H](CNC(=O)CC(c2ccncc2)C2(C(F)(F)F)CC2)N(C)C)c(C)c1 (stereo partly drawn) [Compound 134, 4-((2S)-2-(dimethylamino)-3-(3-(pyridin-4-yl)-3-(1-(trifluoromethyl)cyclopropyl)propanamido)propyl)-N,3-dimethylbenzamide] | < 300 nM |
| CNC(=O)c1ccc(C[C@@H](CNC(=O)C[C@H](CC2CC2)c2ccccn2)N(C)C)c(C)c1 [Compound 139, 4-((S)-3-((S)-4-cyclopropyl-3-(pyridin-2-yl)butanamido)-2-(dimethylamino)propyl)-N,3-dimethylbenzamide] | > 3000 nM |

same assay, conditions: CHO Tag-lite human mOR stable cell line; forskolin 4 μM and DAMGO at EC90; read-out: mOR cAMP Antagonist Assay IC50

| Structure (SMILES) | IC50 |
| --- | --- |
| CNC(=O)c1cc(C)c(C[C@@H](CNC(=O)C[C@@H](CC(C)C)c2ccccn2)N(C)C)c(C)c1 [Compound 108, 4-((S)-2-(dimethylamino)-3-((R)-5-methyl-3-(pyridin-2-yl)hexanamido)propyl)-N,3,5-trimethylbenzamide] | > 3000 nM |
| CNC(=O)c1ccc(C[C@@H](CNC(=O)C[C@@H](c2ccncc2)C2(C(F)(F)F)CC2)N(C)C)c(Cl)c1F [Compound 110, 3-chloro-4-((S)-2-(dimethylamino)-3-((S)-3-(pyridin-4-yl)-3-(1-(trifluoromethyl)cyclopropyl)propanamido)propyl)-2-fluoro-N-methylbenzamide] | > 3000 nM |

same assay, conditions: read-out: mOR cAMP Antagonist Assay IC50

| Structure (SMILES) | IC50 |
| --- | --- |
| CNC(=O)c1ccc(C[C@@H](CNC(=O)CC(c2ccc(OC)nc2)C2(C(F)(F)F)CC2)N(C)C)c(Cl)c1 (stereo partly drawn) [Compound 115, 3-chloro-4-((2S)-2-(dimethylamino)-3-(3-(6-methoxypyridin-3-yl)-3-(1-(trifluoromethyl)cyclopropyl)propanamido)propyl)-N-methylbenzamide] | 300 to 3000 nM |
| CNC(=O)c1ccc(C[C@@H](CNC(=O)C[C@H](c2cnc(C)nc2)C2(C(F)(F)F)CC2)N(C)C)c(C)c1 [Compound 135, 4-((S)-2-(dimethylamino)-3-((R)-3-(2-methylpyrimidin-5-yl)-3-(1-(trifluoromethyl)cyclopropyl)propanamido)propyl)-N,3-dimethylbenzamide] | > 3000 nM |
